The results in this text go back to patent publication US10590460B2, “Selective enrichment medium for carbapenem-resistant bacteria” (priority 2008, dated 2020).

Series [1] is classed as physicochemical. Here is the method: (§1) Different strains of carbapenem-sensitive bacteria or carbapenem-resistant bacteria were cultured under three different sets of conditions and with different spreading concentrations: • group 1: CHROMagar Orientation medium • group 2: CHROMagar Orientation medium in the presence of imipenem (MSD, TIENAM (includes 50% imipenem) 1 or 2 mg/L imipenem), and • group 3: CHROMagar Orientation medium in the presence of meropenem (0.12 or 0.25 mg/L).
(§2) Culture plates were then incubated at 37° C. and analysed regularly to establish the growth or absence of growth of bacteria.

Series [2] has as its system carbapenem-sensitive flora. In words: Culture of carbapenem-sensitive or carbapenem-resistant strains on CHROMagar Orientation medium with a carbapenem. Type of series: cell-based. Here is the method: Different strains of carbapenem-sensitive bacteria or carbapenem-resistant bacteria were cultured under three sets of conditions: • group 1: CHROMagar Orientation medium • group 2: CHROMagar Orientation medium in the presence of meropenem (0.065; 0.25; 1 or 4 mg/L); and • group 3: CHROMagar Orientation medium in the presence of imipenem (MSD, TIENAM (includes 50% imipenem) 0.0325; 0.125; 0.5 or 2 mg/L of imipenem)
Different strains of carbapenem-sensitive bacteria or carbapenem-resistant bacteria were cultured under two sets of conditions: • group 1: CHROMagar Orientation medium; and • group 2: CHROMagar Orientation medium in the presence of ertapenem (INVAZ; 0.0325; 0.065; 0.125; 0.25; 0.5 or 2 mg/L).

Series [3] has as its system carbapenem-sensitive bacteria. In words: Ageing tests on meropenem versus imipenem in CHROMagar Orientation medium. Type of series: cell-based. The method, then:
as §1, §2

In the case of `C[C@@H](O)[C@H]1C(=O)N2C(C(=O)O)=C(S[C@@H]3CN[C@H](C(=O)Nc4cccc(C(=O)O)c4)C3)[C@H](C)[C@H]12` [ertapenem], in series [1], the “stability in an agar medium (duration)” value is recorded as 2 to 4 months and the “stability in an agar medium (in words)” value is “good”. Moreover, in series [2] (ertapenem 0.0325-2 mg/L tested), the “minimum concentration needed to eliminate carbapenem-sensitive flora (in words)” value was “falls between that of meropenem and imipenem”.

As for `C[C@@H](O)[C@H]1C(=O)N2C(C(=O)O)=C(SCCN=CN)C[C@H]12` [imipenem], the “minimum concentration to eliminate carbapenem-sensitive flora” value in series [2] stood at 1 mg/L.

For `C[C@@H](O)[C@H]1C(=O)N2C(C(=O)O)=C(S[C@@H]3CN[C@H](C(=O)N(C)C)C3)[C@H](C)[C@H]12` [meropenem], in series [1], the “stability in an agar medium (duration)” value fell in the range of 2 to 4 months and the “stability in the used culture medium compared to imipenem” value is “much higher stability”. Besides, the “inhibition of the growth of carbapenem-sensitive bacteria” value in series [3] (0.25 mg/L meropenem, 55 days in culture, 37° C.) was “always higher than inhibition obtained at a concentration of 0.12 mg/L of meropenem after 36 days in culture”. Moreover, the “effectiveness in terms of inhibition compared to imipenem” value in series [3] (ageing test, CHROMagar Orientation medium) was “much more effective than imipenem”. Further, in series [2], the “minimum concentration of meropenem relative to necessary minimum concentration of imipenem” value is on record as “about ten times lower” and the “minimum concentration to eliminate carbapenem-sensitive flora” value is recorded as 0.25 mg/L.
